Assay results: the supplement of paper PMC10307832

Columns and labels:
Assay in all cases: relative viability (nuclei count vs DMSO), 5 days (fraction); higher = more cells survive
Linifanib + Olaparib = compound: Cc1ccc(F)c(NC(=O)Nc2ccc(-c3cccc4[nH]nc(N)c34)cc2)c1 [Linifanib] + O=C(c1cc(Cc2n[nH]c(=O)c3ccccc23)ccc1F)N1CCN(C(=O)C2CC2)CC1 [Olaparib] (partner 8 µM)
Outline: (§1)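 Cells from lung cancer lines were seeded into 1536-well plates and, one day later, dosed by pin tool. Treatments were either a single drug or a fixed dose of an anchor drug with five library-drug doses (not always all listed) in √10 steps. After 5 days, nuclei were stained in a one-step fixation (final 0.05% Triton X-100, 1% formaldehyde, 1 ug/ml Hoechst) and counted on 4× images, and relative viability is the treated-to-vehicle nuclei ratio, as the median of duplicate plates.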

Linifanib + Alpelisib = compound: Cc1ccc(F)c(NC(=O)Nc2ccc(-c3cccc4[nH]nc(N)c34)cc2)c1 [Linifanib] + Cc1nc(NC(=O)N2CCC[C@H]2C(N)=O)sc1-c1ccnc(C(C)(C)C(F)(F)F)c1 [Alpelisib] (partner 2 µM)
Outline: as §1

Linifanib + AZD7762 = compound: Cc1ccc(F)c(NC(=O)Nc2ccc(-c3cccc4[nH]nc(N)c34)cc2)c1 [Linifanib] + NC(=O)Nc1cc(-c2cccc(F)c2)sc1C(=O)N[C@H]1CCCNC1 [AZD7762] (partner 0.2 µM)
Outline: as §1

Linifanib + Crizotinib = compound: Cc1ccc(F)c(NC(=O)Nc2ccc(-c3cccc4[nH]nc(N)c34)cc2)c1 [Linifanib] + C[C@@H](Oc1cc(-c2cnn(C3CCNCC3)c2)cnc1N)c1c(Cl)ccc(F)c1Cl [Crizotinib] (partner 1 µM)
Outline: as §1

Linifanib + Phenformin = compound: Cc1ccc(F)c(NC(=O)Nc2ccc(-c3cccc4[nH]nc(N)c34)cc2)c1 [Linifanib] + N=C(N)NC(=N)NCCc1ccccc1 [Phenformin] (partner 250 µM)
Outline: as §1

Linifanib = compound: Cc1ccc(F)c(NC(=O)Nc2ccc(-c3cccc4[nH]nc(N)c34)cc2)c1 [Linifanib]
Outline: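 Viability here means nuclei in treated wells divided by nuclei in vehicle wells, reported as the median across plates. Only plates with control CV below 25% and at least one doubling passed. Lung cancer cell lines in 1536-well plates were exposed to five √10-spaced library-drug doses for 5 days and counted from 4× Hoechst images in MetaXpress.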

| Cell Line | relative viability (Linifanib + Olaparib; first compound 0.03162 µM) | relative viability (Linifanib + Olaparib; first compound 0.1 µM) | relative viability (Linifanib + Olaparib; first compound 0.3162 µM) | relative viability (Linifanib + Alpelisib; first compound 0.03162 µM) | relative viability (Linifanib + Alpelisib; first compound 0.1 µM) | relative viability (Linifanib + Alpelisib; first compound 0.3162 µM) | relative viability (Linifanib + AZD7762; first compound 0.03162 µM) | relative viability (Linifanib + AZD7762; first compound 0.1 µM) | relative viability (Linifanib + AZD7762; first compound 0.3162 µM) | relative viability (Linifanib + Crizotinib; first compound 0.03162 µM) | relative viability (Linifanib + Crizotinib; first compound 0.1 µM) | relative viability (Linifanib + Crizotinib; first compound 0.3162 µM) | relative viability (Linifanib + Phenformin; first compound 0.03162 µM) | relative viability (Linifanib + Phenformin; first compound 0.1 µM) | relative viability (Linifanib + Phenformin; first compound 0.3162 µM) | relative viability (Linifanib; 0.03162 µM) | relative viability (Linifanib; 0.1 µM) | relative viability (Linifanib; 0.3162 µM) |
| --- | --- | --- | --- | --- | --- | --- | --- | --- | --- | --- | --- | --- | --- | --- | --- | --- | --- | --- |
| HCC-827 | 0.651 | 0.711 | 0.654 | 0.986 | 1.06 | 0.922 | 0.204 | 0.231 | 0.275 | 0.957 | 0.957 | 0.884 | 0.432 | 0.453 | 0.382 | 1 | 1.06 | 1.02 |
| HOP-62 | 0.546 | 0.243 | 0.534 | 1.38 | 1.03 | 1.07 | 0.569 | 0.586 | 0.4 | 0.924 | 1.04 | 0.968 | 0.736 | 0.689 | 0.653 | 1.06 | 1.03 | 0.974 |
| LC-2-ad | 0.729 | 0.705 | 0.55 | 0.749 | 0.912 | 0.752 | 0.871 | 0.878 | 0.804 | 0.588 | 0.404 | 0.381 | 0.645 | 0.609 | 0.505 | 0.996 | 0.996 | 0.88 |
| LCLC-97TM1 | 0.453 | 0.402 | 0.502 | 0.284 | 0.292 | 0.246 | 0.262 | 0.229 | 0.29 | 0.43 | 0.456 | 0.362 | 0.423 | 0.437 | 0.341 | 1.15 | 1.02 | 0.919 |
| LCLC-103H | 0.752 | 0.78 | 0.732 | 0.838 | 0.927 | 0.894 | 0.892 | 0.721 | 0.792 | 1.05 | 1.2 | 0.943 | 0.329 | 0.338 | 0.329 | 1.02 | 1.03 | 0.981 |
| LK-2 | 0.694 | 0.759 | 0.732 | 0.895 | 1.06 | 1.01 | 0.618 | 0.504 | 0.376 | 0.216 | 0.195 | 0.219 | 0.447 | 0.691 | 0.4 | 1.05 | 1.12 | 0.965 |
| NCI-H520 | 0.286 | 0.32 | 0.36 | 0.789 | 0.801 | 0.794 |  |  |  | 0.799 | 1.09 | 0.757 | 0.493 | 0.666 | 0.552 | 0.862 | 1.07 | 0.955 |
| NCI-H661 | 0.771 | 0.783 | 0.7 | 0.647 | 0.787 | 0.515 |  |  |  | 1.12 | 1.23 | 0.906 | 0.288 | 0.281 | 0.313 | 1.02 | 0.977 | 0.962 |
| NCI-H1395 | 0.462 | 0.463 | 0.461 | 1.2 | 1.02 | 1.08 | 0.39 | 0.431 | 0.395 |  |  |  | 0.444 | 0.454 | 0.414 | 0.956 | 0.983 | 0.868 |
| NCI-H1650 | 0.78 | 0.971 | 0.753 |  |  |  |  |  |  | 0.955 | 1.17 | 0.864 | 0.428 | 0.571 | 0.412 | 0.965 | 0.966 | 0.89 |
| NCI-H1793 | 0.848 | 1.13 | 0.802 | 0.664 | 0.763 | 0.681 | 0.269 | 0.844 | 0.541 |  |  |  | 0.278 | 0.379 | 0.321 | 0.908 | 1.08 | 0.941 |
| NCI-H2009 | 0.675 | 0.705 | 0.671 | 1.16 | 1.19 | 1.08 |  |  |  | 1.07 | 1.08 | 0.526 | 0.483 | 0.493 | 0.459 | 1.08 | 0.972 | 0.987 |
| NCI-H2023 | 0.518 | 0.615 | 0.46 | 0.585 | 0.598 | 0.564 |  |  |  | 0.679 | 0.774 | 0.544 | 0.398 | 0.479 | 0.392 | 0.972 | 1.09 | 1.02 |
| NCI-H2228 | 0.58 | 1.08 | 0.621 | 0.821 | 0.827 | 0.843 |  |  |  | 0.496 | 0.508 | 0.453 | 0.242 | 0.296 | 0.301 | 0.993 | 1.3 | 1.03 |
| NCI-H2342 | 0.512 | 0.481 | 0.381 |  |  |  | 0.506 | 0.506 | 0.625 |  |  |  | 0.679 | 0.624 | 0.667 | 1.04 | 0.977 | 0.882 |
| SK-LU-1 | 0.467 | 0.558 | 0.456 | 0.926 | 0.918 | 1.05 |  |  |  | 1.03 | 0.958 | 0.864 | 0.528 | 0.622 | 0.58 | 1.07 | 1.11 | 1.01 |
| SK-MES-1 | 0.636 | 0.795 | 0.71 | 0.883 | 0.852 | 0.885 |  |  |  | 1.01 | 1.03 | 0.81 | 0.704 | 0.692 | 0.653 | 0.969 | 1.08 | 0.965 |
| SW 900 | 0.909 | 1.04 | 0.75 |  |  |  | 0.523 | 0.656 | 0.533 |  |  |  | 0.659 | 0.779 | 0.575 | 0.912 | 1.02 | 0.865 |
| SW 1573 | 0.463 | 0.498 | 0.505 | 0.609 | 0.914 | 0.657 |  |  |  | 0.784 | 0.91 | 0.74 | 0.411 | 0.363 | 0.438 | 0.98 | 1.08 | 0.963 |
| UMC-11 | 0.388 | 0.485 | 0.374 | 0.945 | 1.15 | 0.99 |  |  |  | 0.657 | 0.604 | 0.598 | 0.334 | 0.327 | 0.326 | 0.979 | 1.02 | 0.878 |
